Results from publication PMC13198257, “An aerosolized dual-action autotaxin inhibitor-PPARγ agonist for the treatment of pulmonary fibrosis” (Cell Reports Medicine, 2026).

Tested on: lung gene expression
Test: RNA sequencing of lung tissue (BLM/EL244 vs BLM)
Assay type: in vivo, mouse
Settings: lung tissue, BLM/EL244 vs BLM
Protocol: RNA quality was assessed using an Agilent TapeStation 4150 with the High Sensitivity […] ScreenTape (Agilent), according to the manufacturer’s protocols. For library preparation, the QuantSeq 3’mRNA-Seq Library Prep Kit (Lexogen) was used according to manufacturer’s instructions. Briefly, 500 ng of RNA from each sample was used for first-strand synthesis, followed by RNA template removal, and second-strand synthesis initiated by random primers. In-line barcodes were introduced at this step, and this was followed by magnetic bead-based purification. The resulting libraries were amplified for 15 cycles and re-purified, with quantity and quality assessed on a Qubit 4 Fluorometer with the Invitrogen Qubit dsDNA HS Assay and an Agilent Tapestation 4150 with the High Sensitivity D1000 assay kit, respectively. The quantified libraries were pooled equimolarly; 50ng of total library mix was used for Adapter Conversion PCR Amplification using the Universal Library Conversion Kit (App-A), Version: V1.0 (MGI Tech Co., Ltd.), according to the manufacturer’s instructions.
The quantity and quality of the purified adapter conversion PCR (AC-PCR) product were evaluated on a Qubit 4 Fluorometer with the Invitrogen Qubit dsDNA HS Assay and on an Agilent Tapestation 4150 with the High Sensitivity D1000 assay kit, respectively. This was followed by DNA denaturation, Single-Strand Circularisation, Enzymatic Digestion, Enzymatic Digestion Product Cleanup and Quality Control steps on 1 pmol of AC-PCR product, according to the Universal Library Conversion Kit (App-A) User Manual (Version: A3).
Finally, 60 fmol of ssCirDNA were used for DNB preparation and sequencing on a DNBSEQ-G400 platform at the BSRC Alexander Fleming Genomics Facility, using a G400 App-A FCS SE100 High-throughput Sequencing Set (MGI Tech Co., Ltd.), according to the manufacturer’s instructions.
Alignment of the FASTQ files was performed against the mouse genome build mm10 using a custom Bash script.[143] Read counting on the 3′ UTRs and differential expression analysis were conducted using the metaseqR2 bioconductor package.[144] Genes corresponding to the following biotypes were excluded: polymorphic_pseudogene, processed_transcript, pseudogene, IG_V_pseudogene, misc_RNA, IG_C_gene, IG_J_gene, IG_D_gene, IG_LV_gene, TR_V_gene, TR_V_pseudogene, TEC, and processed_pseudogene. Gene counts were normalized with DESEQ[145] through metaseqR2. Genes with more than 10 counts in at least 50% of the samples were kept for further processing. For differential expression analysis, the PANDORA algorithm[146] was used to estimate a meta p-value integrating the results from the DESEQ, DESEQ2,[147] edgeR,[148] limma,[149] NBPSeq,[150] and NOISeq[151] algorithms. All additional parameters were set to default values.
Pathway enrichment analysis was performed for the Gene Ontology Biological process (BP) and Molecular Function (MF) terms through GeneCodis 4.[152] The volcano plots, scatterplots, Venn diagrams, and dot plots were generated using the ggplot2 Bioconductor package.

## O=C1NC(=O)C(Cc2ccc(OCCC3CCN(C(=O)OCc4cc(Cl)cc(Cl)c4)CC3)cc2)S1 (centres unmarked) [EL244, 3,5-dichlorobenzyl 4-(2-(4-((2,4-dioxothiazolidin-5-yl)methyl)phenoxy)ethyl)piperidine-1-carboxylate]
  log2 nFC Hells: -1.30
  log2 nFC Il18bp: -0.95
  log2 nFC Ildr2: -1.32
  log2 nFC Itm2a: -1.25
  log2 nFC Kcnn4: -1.27
  log2 nFC Kdelr3: -1.25
  log2 nFC Kif23: -1.20
  log2 nFC Klhdc8a: -1.02
  log2 nFC Kntc1: -1.39
  log2 nFC Lair1: -0.92
  log2 nFC Lat2: -1.10
  log2 nFC Lcn2: -0.95
  log2 nFC Lgals1: -1.12
  log2 nFC Lgmn: -1.09
  log2 nFC Lilrb4a: -0.89
  log2 nFC Lmnb1: -0.91
  log2 nFC Loxl2: -0.91
  log2 nFC Lrg1: -0.89
  log2 nFC Lum: -1.32
  log2 nFC Mad2l1: -0.97
  log2 nFC Mafb: -0.92
  log2 nFC Mark1: -1.23
  log2 nFC Mcm5: -1.33
  log2 nFC Mdk: -1.34
  log2 nFC Mfap5: -1.12
  log2 nFC Mfrp: -0.87
  log2 nFC Mgp: -1.03
  log2 nFC Mir692-1: -1.18
  log2 nFC Mmp14: -1.31
  log2 nFC Ms4a6c: -0.91
  log2 nFC Ms4a6d: -0.93
  log2 nFC Ncapd2: -1.29
  log2 nFC Ndnf: -0.87
  log2 nFC Nnat: -1.34
  log2 nFC Nrcam: -1.26
  log2 nFC Nrep: -1.26
  log2 nFC P2ry6: -0.93
  log2 nFC Paox: -0.92
  log2 nFC Pcdh7: -1.03
  log2 nFC Pdlim4: -1.24
  log2 nFC Plk4: -1.31
  log2 nFC Polh: -0.87
  log2 nFC Ppic: -1.10
  log2 nFC Prdx4: -0.94
  log2 nFC Psat1: -0.98
  log2 nFC Psrc1: -1.26
  log2 nFC Pth1r: -1.40
  log2 nFC Racgap1: -1.21
  log2 nFC Rcc1: -0.92
  log2 nFC Rgs4: -1.23
  log2 nFC Rgs5: -1.00
  log2 nFC Rhof: -1.02
  log2 nFC S100a4: -1.26
  log2 nFC S100a14: -1.28
  log2 nFC Scn3b: -0.91
  log2 nFC Serpina3g: -1.31
  log2 nFC Serpina3n: -1.22
  log2 nFC Serpine1: -0.98
  log2 nFC Serpine2: -0.87
  log2 nFC Serpinh1: -0.87
  log2 nFC Sertad4: -1.35
  log2 nFC Sfn: -1.19
  log2 nFC Sh2b2: -1.23
  log2 nFC Slamf8: -1.24
  log2 nFC Smc2: -0.98
  log2 nFC Snai1: -0.97
  log2 nFC Spc24: -1.13
  log2 nFC St8sia6: -1.04
  log2 nFC Tacc3: -1.27
  log2 nFC Tiam1: -1.04
  log2 nFC Tlr2: -1.04
  log2 nFC Tnfaip8l1: -1.08
  log2 nFC Tnfrsf11a: -1.12
  log2 nFC Tns4: -1.20
  log2 nFC Traf4: -1.10
  log2 nFC Tubb2b: -1.19
  log2 nFC Tyms: -1.02
  log2 nFC Ulbp1: -1.06
  log2 nFC Vcan: -1.21
  log2 nFC Wfdc17: -1.30
  nFC 1500009L16Rik: 0.43
  nFC 2200002D01Rik: 0.54
  nFC AA467197: 0.38
  nFC Adamts2: 0.50
  nFC Areg: 0.49
  nFC Arhgap11a: 0.46
  nFC Armcx4: 0.40
  nFC Asf1b: 0.45
  nFC Bcl2a1b: 0.45
  nFC Bcl2a1d: 0.41
  nFC Bub1b: 0.44
  nFC C1qtnf5: 0.55
  nFC C1qtnf6: 0.38
  nFC Ccdc8: 0.46
  nFC Ccl9: 0.39
  nFC Ccl17: 0.52
  nFC Cd68: 0.50
  nFC Cd72: 0.50
  nFC Cd248: 0.42
  nFC Cd300c2: 0.54
  nFC Cdca2: 0.40
  nFC Cenpa: 0.40
  nFC Cenpw: 0.40
  nFC Cercam: 0.39
  nFC Ch25h: 0.53
  nFC Cilp: 0.38
  nFC Clcn5: 0.53
  nFC Clec4a2: 0.42
  nFC Clec4n: 0.38
  nFC Clec5a: 0.45
  nFC Clec11a: 0.50
  nFC Clec12a: 0.53
  nFC Col1a2: 0.38
  nFC Col8a1: 0.44
  nFC Col12a1: 0.54
  nFC Col15a1: 0.47
  nFC Col16a1: 0.53
  nFC Cotl1: 0.54
  nFC Csf2rb2: 0.50
  nFC Cstb: 0.52
  nFC Ctsk: 0.51
  nFC Ctss: 0.53
  nFC Cx3cr1: 0.44
  nFC Cyp7b1: 0.38
  nFC Dbn1: 0.54
  nFC Dclk1: 0.55
  nFC Diaph3: 0.46
  nFC Dio2: 0.38
  nFC Dok2: 0.39
  nFC Dut: 0.54
  nFC Egr2: 0.54
  nFC Epha4: 0.54
  nFC F10: 0.46
  nFC Fam20c: 0.48
  nFC Fbn1: 0.49
  nFC Fcgr1: 0.41
  nFC Fcgr2b: 0.47
  nFC Fcrls: 0.39
  nFC Fen1: 0.50
  nFC Fgf13: 0.38
  nFC Fkbp10: 0.42
  nFC Fndc1: 0.46
  nFC Fscn1: 0.43
  nFC Fst: 0.48
  nFC Fstl1: 0.43
  nFC Gas2l3: 0.40
  nFC Gm13889: 0.55
  nFC Gm25380: 0.50
  nFC Gm42674: 0.44
  nFC Gm49339: 0.52
  nFC Hells: 0.41
  nFC Il18bp: 0.52
  nFC Ildr2: 0.40
  nFC Itm2a: 0.42
  nFC Kcnn4: 0.41
  nFC Kdelr3: 0.42
  nFC Kif23: 0.44
  nFC Klhdc8a: 0.49
  nFC Kntc1: 0.38
  nFC Lair1: 0.53
  nFC Lat2: 0.47
  nFC Lcn2: 0.52
  nFC Lgals1: 0.46
  nFC Lgmn: 0.47
  nFC Lilrb4a: 0.54
  nFC Lmnb1: 0.53
  nFC Loxl2: 0.53
  nFC Lrg1: 0.54
  nFC Lum: 0.40
  nFC Mad2l1: 0.51
  nFC Mafb: 0.53
  nFC Mark1: 0.42
  nFC Mcm5: 0.40
  nFC Mdk: 0.40
  nFC Mfap5: 0.46
  nFC Mfrp: 0.55
  nFC Mgp: 0.49
  nFC Mir692-1: 0.44
  nFC Mmp14: 0.40
  nFC Ms4a6c: 0.53
  nFC Ms4a6d: 0.53
  nFC Ncapd2: 0.41
  nFC Ndnf: 0.55
  nFC Nnat: 0.40
  nFC Nrcam: 0.42
  nFC Nrep: 0.42
  nFC P2ry6: 0.52
  nFC Paox: 0.53
  nFC Pcdh7: 0.49
  nFC Pdlim4: 0.42
  nFC Plk4: 0.40
  nFC Polh: 0.55
  nFC Ppic: 0.47
  nFC Prdx4: 0.52
  nFC Psat1: 0.51
  nFC Psrc1: 0.42
  nFC Pth1r: 0.38
  nFC Racgap1: 0.43
  nFC Rcc1: 0.53
  nFC Rgs4: 0.42
  nFC Rgs5: 0.50
  nFC Rhof: 0.49
  nFC S100a4: 0.42
  nFC S100a14: 0.41
  nFC Scn3b: 0.53
  nFC Serpina3g: 0.40
  nFC Serpina3n: 0.43
  nFC Serpine1: 0.51
  nFC Serpine2: 0.55
  nFC Serpinh1: 0.55
  nFC Sertad4: 0.39
  nFC Sfn: 0.44
  nFC Sh2b2: 0.43
  nFC Slamf8: 0.42
  nFC Smc2: 0.51
  nFC Snai1: 0.51
  nFC Spc24: 0.46
  nFC St8sia6: 0.49
  nFC Tacc3: 0.42
  nFC Tiam1: 0.49
  nFC Tlr2: 0.48
  nFC Tnfaip8l1: 0.47
  nFC Tnfrsf11a: 0.46
  nFC Tns4: 0.44
  nFC Traf4: 0.47
  nFC Tubb2b: 0.44
  nFC Tyms: 0.49
  nFC Ulbp1: 0.48
  nFC Vcan: 0.43
  nFC Wfdc17: 0.41
